{
  "source": "ChEMBL document CHEMBL3885861",
  "about": "“Open TG-GATES”",
  "species_on_record": "Rattus norvegicus",
  "assay": "Open TG-GATES - Regimen: Daily Repeat",
  "assay_type": "toxicity, organism-based, Sprague-Dawley",
  "design": "regimen Daily Repeat, gender Male, age 6 weeks",
  "conditions": "in vivo, po, 1000 mg/kg, route gavage, dose level High; for APTT / Bas / Eos / Fbg / Hb / Ht / Lym / MCH / MCHC / MCV / Mono / Neu / PT / Plat / RBC / Ret / WBC: tissue Blood",
  "key": {"[1]": {"conditions": "72 h, tissue Kidney, time 3 day"}, "[2]": {"conditions": "72 h, tissue Plasma, time 3 day"}},
  "data": [
    {"smiles": "CCCCNC(=O)NS(=O)(=O)c1ccc(C)cc1", "note": "[TOLBUTAMIDE]", "values": [
      {"measurement": "TERMINAL_BW", "setting": "72 h, time 3 day", "result": 225.8, "unit": "g"},
      {"measurement": "APTT", "setting": "72 h, time 3 day", "result": 17.7, "unit": "s"},
      {"measurement": "Bas", "setting": "72 h, time 3 day", "result": 0, "unit": "%"},
      {"measurement": "Eos", "setting": "72 h, time 3 day", "result": 1, "unit": "%"},
      {"measurement": "Fbg", "setting": "72 h, time 3 day", "result": 301.6, "unit": "mg/dL"},
      {"measurement": "Hb", "setting": "72 h, time 3 day", "result": 13.7, "unit": "g/dL"},
      {"measurement": "Ht", "setting": "72 h, time 3 day", "result": 41.6, "unit": "%"},
      {"measurement": "Lym", "setting": "72 h, time 3 day", "result": 81, "unit": "%"},
      {"measurement": "MCH", "setting": "72 h, time 3 day", "result": 21.2, "unit": "pg"},
      {"measurement": "MCHC", "setting": "72 h, time 3 day", "result": 33, "unit": "%"},
      {"measurement": "MCV", "setting": "72 h, time 3 day", "result": 64.2, "unit": "fL"},
      {"measurement": "Mono", "setting": "72 h, time 3 day", "result": 2.2, "unit": "%"},
      {"measurement": "Neu", "setting": "72 h, time 3 day", "result": 15.2, "unit": "%"},
      {"measurement": "PT", "setting": "72 h, time 3 day", "result": 12.8, "unit": "s"},
      {"measurement": "Plat", "setting": "72 h, time 3 day", "result": 129.6, "unit": "x10_4/uL"},
      {"measurement": "RBC", "setting": "72 h, time 3 day", "result": 647.4, "unit": "x10_4/ul"},
      {"measurement": "Ret", "setting": "72 h, time 3 day", "result": 4.2, "unit": "%"},
      {"measurement": "WBC", "setting": "72 h, time 3 day", "result": 89.2, "unit": "x10_2/uL"},
      {"measurement": "KIDNEY_L", "setting": "[1]", "result": 1, "unit": "g"},
      {"measurement": "KIDNEY_R", "setting": "[1]", "result": 1, "unit": "g"},
      {"measurement": "KIDNEY_TOTAL", "setting": "[1]", "result": 2.1, "unit": "g"},
      {"measurement": "LIVER", "setting": "72 h, tissue Liver, time 3 day", "result": 11.5, "unit": "g"},
      {"measurement": "A/G", "setting": "[2]", "result": 0.9},
      {"measurement": "ALP", "setting": "[2]", "result": 1487, "unit": "IU/L"},
      {"measurement": "ALT", "setting": "[2]", "result": 40.8, "unit": "IU/L"},
      {"measurement": "AST", "setting": "[2]", "result": 69.6, "unit": "IU/L"},
      {"measurement": "BUN", "setting": "[2]", "result": 12.8, "unit": "mg/dL"},
      {"measurement": "CRE", "setting": "[2]", "result": 0.2, "unit": "mg/dL"},
      {"measurement": "Ca", "setting": "[2]", "result": 11, "unit": "mg/dL"},
      {"measurement": "Cl", "setting": "[2]", "result": 105.2, "unit": "meq/L"},
      {"measurement": "DBIL", "setting": "[2]", "result": 0.004, "unit": "mg/dL"},
      {"measurement": "GLC", "setting": "[2]", "result": 172, "unit": "mg/dL"},
      {"measurement": "IP", "setting": "[2]", "result": 7.9, "unit": "mg/dL"},
      {"measurement": "K", "setting": "[2]", "result": 3.9, "unit": "meq/L"},
      {"measurement": "LDH", "setting": "[2]", "result": 75.6, "unit": "IU/L"},
      {"measurement": "Na", "setting": "[2]", "result": 142.4, "unit": "meq/L"},
      {"measurement": "PL", "setting": "[2]", "result": 144, "unit": "mg/dL"},
      {"measurement": "RALB", "setting": "[2]", "result": 2.6, "unit": "g/dL"},
      {"measurement": "TBIL", "setting": "[2]", "result": 0.06, "unit": "mg/dL"},
      {"measurement": "TC", "setting": "[2]", "result": 76.8, "unit": "mg/dL"},
      {"measurement": "TG", "setting": "[2]", "result": 68, "unit": "mg/dL"},
      {"measurement": "TP", "setting": "[2]", "result": 5.5, "unit": "g/dL"},
      {"measurement": "gamma-GTP", "setting": "[2]", "result": 1, "unit": "IU/L"},
      {"measurement": "TERMINAL_BW", "setting": "[…], time 7 day", "result": 255.2, "unit": "g"},
      {"measurement": "TERMINAL_BW", "setting": "[…], time 14 day", "result": 306.7, "unit": "g"},
      {"measurement": "TERMINAL_BW", "setting": "[…], time 28 day", "result": 411.9, "unit": "g"},
      {"measurement": "APTT", "setting": "[…], time 7 day", "result": 18.1, "unit": "s"},
      {"measurement": "Bas", "setting": "[…], time 7 day", "result": 0.4, "unit": "%"},
      {"measurement": "Eos", "setting": "[…], time 7 day", "result": 0.6, "unit": "%"},
      {"measurement": "Fbg", "setting": "[…], time 7 day", "result": 267.4, "unit": "mg/dL"},
      {"measurement": "Hb", "setting": "[…], time 7 day", "result": 13.7, "unit": "g/dL"},
      {"measurement": "Ht", "setting": "[…], time 7 day", "result": 41.4, "unit": "%"},
      {"measurement": "Lym", "setting": "[…], time 7 day", "result": 80, "unit": "%"},
      {"measurement": "MCH", "setting": "[…], time 7 day", "result": 20.5, "unit": "pg"},
      {"measurement": "MCHC", "setting": "[…], time 7 day", "result": 33.1, "unit": "%"},
      {"measurement": "MCV", "setting": "[…], time 7 day", "result": 61.9, "unit": "fL"},
      {"measurement": "Mono", "setting": "[…], time 7 day", "result": 2.4, "unit": "%"},
      {"measurement": "Neu", "setting": "[…], time 7 day", "result": 16.2, "unit": "%"},
      {"measurement": "PT", "setting": "[…], time 7 day", "result": 12.9, "unit": "s"},
      {"measurement": "Plat", "setting": "[…], time 7 day", "result": 112, "unit": "x10_4/uL"},
      {"measurement": "RBC", "setting": "[…], time 7 day", "result": 669.6, "unit": "x10_4/ul"},
      {"measurement": "Ret", "setting": "[…], time 7 day", "result": 5.3, "unit": "%"},
      {"measurement": "WBC", "setting": "[…], time 7 day", "result": 138.8, "unit": "x10_2/uL"},
      {"measurement": "APTT", "setting": "[…], time 14 day", "result": 19.2, "unit": "s"},
      {"measurement": "Bas", "setting": "[…], time 14 day", "result": 0.4, "unit": "%"},
      {"measurement": "Eos", "setting": "[…], time 14 day", "result": 0.8, "unit": "%"},
      {"measurement": "Fbg", "setting": "[…], time 14 day", "result": 320, "unit": "mg/dL"},
      {"measurement": "Hb", "setting": "[…], time 14 day", "result": 14.3, "unit": "g/dL"},
      {"measurement": "Ht", "setting": "[…], time 14 day", "result": 43.7, "unit": "%"},
      {"measurement": "Lym", "setting": "[…], time 14 day", "result": 82.8, "unit": "%"},
      {"measurement": "MCH", "setting": "[…], time 14 day", "result": 19.3, "unit": "pg"},
      {"measurement": "MCHC", "setting": "[…], time 14 day", "result": 32.7, "unit": "%"},
      {"measurement": "MCV", "setting": "[…], time 14 day", "result": 59.1, "unit": "fL"},
      {"measurement": "Mono", "setting": "[…], time 14 day", "result": 1.8, "unit": "%"},
      {"measurement": "Neu", "setting": "[…], time 14 day", "result": 13.8, "unit": "%"},
      {"measurement": "PT", "setting": "[…], time 14 day", "result": 12.5, "unit": "s"},
      {"measurement": "Plat", "setting": "[…], time 14 day", "result": 127.9, "unit": "x10_4/uL"},
      {"measurement": "RBC", "setting": "[…], time 14 day", "result": 740, "unit": "x10_4/ul"},
      {"measurement": "Ret", "setting": "[…], time 14 day", "result": 4.3, "unit": "%"},
      {"measurement": "WBC", "setting": "[…], time 14 day", "result": 116.4, "unit": "x10_2/uL"},
      {"measurement": "APTT", "setting": "[…], time 28 day", "result": 25, "unit": "s"},
      {"measurement": "Bas", "setting": "[…], time 28 day", "result": 0.2, "unit": "%"},
      {"measurement": "Eos", "setting": "[…], time 28 day", "result": 1, "unit": "%"},
      {"measurement": "Fbg", "setting": "[…], time 28 day", "result": 269.5, "unit": "mg/dL"},
      {"measurement": "Hb", "setting": "[…], time 28 day", "result": 15, "unit": "g/dL"},
      {"measurement": "Ht", "setting": "[…], time 28 day", "result": 45, "unit": "%"}
    ]}
  ]
}
